Source: patent publication US20110212186A1, “COMPOSITION FOR TREATING AUTOIMMUNE DISORDERS” (priority 2008, published 2011)

What was measured:
[1] = tested on: Bovine articular cartilage explants; assay: Chondroitin sulphate (sGAG) release from bovine cartilage explants, anabolic conditions; type: cell-based; details: for effect on accumulated chondroitin sulphate release day 10-23: Oligomin 200 and 400 μg/ml, glucosamine 400 μg/ml, T-ChOS 50-400 μg/ml, A 200 and 400 μg/ml; for accumulative chondroitin sulphate release day 17-24: combination experiment, IGF-1 100 ng/ml
Protocol: (§1) For cartilage explant experiments, aminosugar concentrations tested were as follows. Oligomin and T-ChOS, 50, 100, 200 and 400 μg/ml in the media. N-acetyl glucosamine (A) and glucosamine (D), 200 and 400 μg/ml in the media. A+D combination were 200 μg/ml each in the media.
(§2) Bovine articular cartilage explants cultures are used as a model for cartilage degenerative diseases that enables experiments in a robust and simple test-model/assay, where the effect of growth factors and drugs on cartilage metabolism can be investigated [ Olsen, A.K., et al., Anabolic and catabolic function of chondrocyte ex vivo is reflected by the metabolic processing of type II collagen. Osteoarthritis and Cartilage, 2007, 15(3): p. 335-342.].
(§3) The knees were opened under semi-sterile conditions in a LAF bench. Cuts of surface articular cartilage were removed in a one-movement-maneuver, removing only the outermost layer. Too deep cuts will contain underlying subchondral bone /chondrosteous material. Uniform explants were harvested from both femur and tibia. Explants from the cartilage situated at the chondyles were avoided. The explants were transferred into a Petri-dish containing PBS+pen/strep (penincillin/streptomycin).
(§4) The explants were individually weighed and transferred into a sterile 96 well plate under semi-sterile conditions in a flow-bench. Prior, the wells were filled with 200 μL PBS+pen/strep, to keep the explants wet after weighing. Then PBS was removed, and medium containing different types and concentration of aminosugars were applied to the wells, 200 μL/well, according to the set-up. Four explant replicates were used for each test. The plates were incubated at 37° C. and 5% CO2 with shaking 50 rpm. The plates were covered in a CO2 permeable plastic bag to limit/avoid contamination from spores. The conditioning medium was replaced every 2nd - 3rd day, and the supernatant was transferred into a new 96 wells plate and stored at −20° C. until end of experiment. Fresh medium different types and concentration of aminosugars were applied to the wells, 200 μL/well, according to the setup every 2nd- 3rd day.
For detection of sulfated glycosaminoglycans (sGAG) that is chondroitin sulphate release, the quantitative dye-binding assay for in vitro analysis of GAG release was used according to the manufacturer's instructions (Wieslab, S).

[2] = tested on: Bovine articular cartilage explants; assay: Collagen type II formation (PIINP ELISA) in bovine cartilage explants; type: cell-based; details: for effect on PIINP, day 22: Oligomin and T-ChOS 50-400 μg/ml, A and D 200 and 400 μg/ml
Protocol: as §1, §2, §3
as §4, with “The conditioning medium was replaced every 2nd - 3rd day, and the supernatant was transferred into a new 96 wells plate and stored at −20° C. until end of experiment. Fresh medium different types and concentration of aminosugars were applied to the wells, 200 μL/well, according to the setup every 2nd- 3rd day.” left out
Supernatants were measured for type II collagen formation (PIINP), for aggrecanase-mediated aggrecan degradation. […]
Collagen type II formation is measured by a specific ELISA assay based on an antibody that recognizes an epitope on the PIINP molecule outside the exon 2 (PIIANP). […]

[3] = tested on: human OA cartilage explant; assay: Collagen type II formation (PIINP) in human OA cartilage explants; type: cell-based; details: different concentrations
Protocol: Collagen type II formation is measured by a specific ELISA assay based on an antibody that recognizes an epitope on the PIINP molecule outside the exon 2 (PIIANP). Therefore the EUSA is not specific for the HA or the IIB form but reacts with both forms. Cartilage explants were obtained from a knee of a person suffering from osteoarthritis. Explants were kept in growth media under anabolic conditions for 25 days. Fresh media was applied every 2-3 days. Aminosugars (Oligomin, T-ChOS, A and D; different concentration) were kept in media from day 0 to day 25.

YKL-40 = assay: Extracellular YKL-40 release in human cartilage explant media; type: cell-based; details: 400 μg/ml
Protocol: Cartilage explants were obtained from a knee of a person suffering from osteoarthritis. Explants were kept in growth media under anabolic conditions for 25 days. Fresh media was applied every 2-3 days. Aminosugars (Oligomin, T-ChOS, A and D; different concentration) were kept in media from day 0 to day 25. Since YKL-40 is a proposed receptor for the T-ChOS, the extracellular YKL-40 release was analyzed in media at day 4, 11, 15, 20 and 25 in explants treated with 400 μg/ml of T-ChOS, Oligomin and glucosamine (D). […] For the control there was a significant drop in the YKL-40 expression between day 10 and 20. […] Glucosamine had no effect (FIG. 7). […] This relationship disappeared when the T-ChOS group was excluded from the data (no linear regression).

[4] = tested on: human OA articular cartilage explants; assay: Cell viability by Alamar Blue, human OA articular cartilage explants; type: cell-based; details: linear regression p<0.05
Protocol: To ensure the specific and non-toxic action of aminosugars, the metabolic activity of chondrocytes were measured by Alamar Blue, which previously has shown to correlate to cell number and cell viability. Cartilage explants were obtained from a knee of a person suffering from osteoarthritis. Explants were kept in growth media under anabolic conditions for 25 days. Fresh media was applied every 2-3 days. Aminosugars (Oligomin, T-ChOS, A and D; different concentration) were kept in media from day 0 to day 25.

[5] = tested on: type II collagen arthritis in rats; assay: Type II collagen induced rheumatoid arthritis rat model, oral dosing; type: in vivo
Protocol: Animals used were 10 per group for arthritis-Induced groups, 4/group for non-induced control group), housed 4-5/cage. For the arthritis induction, the animals were anesthetized with Isoflurane and given subcutaneous/intradermal (SC/ID) injections of 300 μl of Freund's Incomplete Adjuvant (Difco, Detroit, Mich.), containing 2 mg/ml bovine type II collagen (Elastin Products, Owensville, Mo.), at the base of the tail and 2 sites on the back on days 0 and 6. Dosing of the various oligomer and/or monomer compositions by oral route (QD at 24 hr intervals) was initiated on day 0 of the study and continued through day 16. Animals were terminated on study day 17. Efficacy evaluation was based on ankle caliper measurements, expressed as area under the curve (AUC), terminal hind paw weights, and histopathologic evaluation of ankles and knees. For statistical analysis various inflammation calculations were performed for the ankle diameter data, Anova and t-tests (parametrical or non-parametrical tests) were applied according to software guidelines ([…]). All animals survived to study termination.

[6] = tested on: Bovine articular cartilage explants; assay: Extracted cartilage protein content, bovine explants; type: cell-based; details: combination experiment
Protocol: The cartilage was extracted to determine the cartilage content of various proteins, in comparison of that secreted to the medium.
Cartilage explants were frozen in liquid nitrogen. The frozen explants were pulverized using Bessman Tissue Pulverizer according to the instructions supplied by the manufacturer. The powder was placed in 14 ml tube using frozen scalpel. Ice-cold Digestive Buffer (50 mM Tris.HCL buffer, pH 7.4 containing 0.1M NaCL and 0.1% Triton X-100) was added and the solution homogenized for 30 sec using Polytron PT-MR 3000 homogenizer (Brinkmann, Littau-Switzerland).The homogenate was then centrifuged at 15,000 rpm for 20 min and the supernatant collected and stored at −80° C. until further analysis.

Molecule	effect on accumulated chondroitin sulphate release day 10-23 [1]	effect on PIINP, day 22 [2]	effect on accumulated chondroitin sulphate release day 10-23 ([1]; listed as Glucosamine)	accumulative chondroitin sulphate release day 17-24 [1]	accumulated PIINP release (day 20 and day 24) ([2]; combination experiment, T-ChOS 50 and 400 μg/ml, T-ChOS 400 μg/ml + glucosamine 200 μg/ml, glucosamine 200 μg/ml, Oligomin 50-400 μg/ml)	effect on PIINP expression day 18-25 [3]	YKL-40 expression in media, late period (day 15-25) (YKL-40)	Cell-viability at day 25 (Alamar Blue), induction [4]	Summed knee scores, non-significant increase vs disease controls ([5]; 21 mg/kg D alone) [%]	Inhibition of summed ankle histopathology parameters ([5]; T-ChOS 7.1 mg/kg (Group 3), D 21.4 mg/kg (Group 4), T-ChOS 7.1 + D 21.4 mg/kg (Group 5)) [%]	overall benefit in the rat arthritis study (summary) ([5]; T-ChOS 7.1 mg/kg alone, D-glucosamine 21.4 mg/kg alone)	accumulative ankle diameter (day 9-17) ([5]; T-ChOS 7.1 mg/kg, D 21.4 mg/kg, combination T-ChOS 7.1 + D 21.4 mg/kg)	extracted cartilage protein assay at day 24 [6]
CC(=O)N[C@H]1C(O)O[C@H](CO)[C@@H](O)[C@@H]1O (stereo partly shown) [N-acetyl glucosamine]	no significant effect	no effect	–	–	–	–	–	–	–	–	–	–	–
N[C@H]1C(O)O[C@H](CO)[C@@H](O)[C@@H]1O (stereo partly shown) [glucosamine]	significant reduction	no effect	same effect	neither T-ChOS nor glucosamine alone did have any significant effect	no effect	no effect	no effect	least	14	12	no beneficial effect	no effect	–
IGF-1: Insulin-like Growth Factor-1, 100 ng/ml, positive anabolic stimulation control	–	–	–	significant Increase	–	–	–	–	–	–	–	–	did not reveal any significant effect
